Assay [1] has as its system activity of 1 μg/kg of aldosterone monoacetate. The experiment in a line: Antialdosterone activity in surrenalectomized rats. Format: in vivo. The conditions noted are these: male Sprague-Dawley surrenalectomized rats; oral dose 5 mg/kg; 1 μg/kg aldosterone monoacetate s.c.; 4 hours urine collection. Here is the method:
Male rats of the Sprague-Dawley strain weighing about 180 g were surrenalectomized and at that moment, the rats received with drinking water a physiological serum. […] At the end of 47 hours, the rats received orally either the B isomer of (17R) 6β, 7β-methylene-2'-oxidospiro-(Δ^4 -androstene-17,5'-[1',2']-oxathiolane)-3-one (product A), the B isomer of (17R) 6α, 7α-methylene-2'-oxidospiro-(Δ^4 -androstene-17,5'-[1',2']-oxathiolane)-3-one (product B) or the B isomer of (17R) 7α-methyl-2'-oxidospiro-(Δ^4 -androstene-17,5'-[1',2']-oxathiolane)-3-one (product C) in the form of a solution or suspension in 0.25% carboxymethylcellulose. One hour after the said oral administration, the animals received a hydrosaline overdose by intraperitoned administration of 5 ml of a […] physiological serum per 100 g of body weight and 1 μg/kg of a 2.5% alcoholic solution of aldosterone monoacetate by subcutaneous administration. The animals were placed in diuresis cages without food or drink for 4 hours and at the end of 4 hours, a forced miction was caused by pressure on the bladder. The volume of urine was brought to 50 ml and the amount of sodium and potassium was determined with an autoanalyser.

The next assay has as its target T1, androgen receptors (Rattus norvegicus, UniProt P15207).
T1 construct: the prostate was removed from male rats castrated 24 hours earlier and was homogenized in a buffer; from tissue; host or cells: prostate cytosol (105,000g supernatant) of male rats castrated 24 hours earlier
T1 sequence (P15207 1-902): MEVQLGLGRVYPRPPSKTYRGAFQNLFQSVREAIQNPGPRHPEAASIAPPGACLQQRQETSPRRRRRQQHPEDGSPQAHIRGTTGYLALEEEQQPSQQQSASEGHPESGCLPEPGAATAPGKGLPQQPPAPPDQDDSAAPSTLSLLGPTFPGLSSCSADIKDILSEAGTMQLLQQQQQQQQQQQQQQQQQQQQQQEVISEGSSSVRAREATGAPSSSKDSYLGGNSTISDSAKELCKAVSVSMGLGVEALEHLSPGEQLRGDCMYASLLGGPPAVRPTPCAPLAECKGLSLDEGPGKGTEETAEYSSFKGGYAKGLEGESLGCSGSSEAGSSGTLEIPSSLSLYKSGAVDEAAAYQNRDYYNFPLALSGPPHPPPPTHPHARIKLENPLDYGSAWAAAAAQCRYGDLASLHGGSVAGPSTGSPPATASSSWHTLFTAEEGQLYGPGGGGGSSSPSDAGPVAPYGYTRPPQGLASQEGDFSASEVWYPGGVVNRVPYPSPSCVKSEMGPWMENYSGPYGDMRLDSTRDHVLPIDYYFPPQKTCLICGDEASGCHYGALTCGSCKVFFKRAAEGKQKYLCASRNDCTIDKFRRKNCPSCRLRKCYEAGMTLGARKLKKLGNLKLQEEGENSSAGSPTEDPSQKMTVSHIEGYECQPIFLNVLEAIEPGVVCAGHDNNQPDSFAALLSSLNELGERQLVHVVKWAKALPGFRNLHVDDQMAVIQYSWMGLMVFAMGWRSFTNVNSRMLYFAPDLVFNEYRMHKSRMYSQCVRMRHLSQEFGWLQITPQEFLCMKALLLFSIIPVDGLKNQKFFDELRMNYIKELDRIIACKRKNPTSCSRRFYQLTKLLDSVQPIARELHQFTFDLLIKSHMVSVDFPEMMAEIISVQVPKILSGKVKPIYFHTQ
The experiment in a line: Affinity for androgenic receptors (hormonal receptor test, rat prostate cytosol, tritiated product R). Format: binding, rats. Particulars: for affinity for androgen receptors (in words): conclusion from Table II; for RLA (relative affinity = 100 × CT/CX): prostate cytosol of castrated male rats, tritiated 17α-methyl-Δ4,9,11-estratriene-17β-ol-3-one, 0° C, 2 hours, testosterone = 100. Here is the method: The test used was the hormonal receptor test described by Raynaud et al [J. Ster. Biochem., Vol. 6 (1975), p. 615-622] in which the prostate was removed from male rats castrated 24 hours earlier and was homogenized in a buffer: 10 millimole tromethamine, saccharose 0.25M, HCl for pH of 7.4. The homogenate was centrifuged at 105,000g for one hour and the surnageant liquid or "cytosol" was then adjusted to obtain a dilution of 1/5 (weight/volume). […] At the end of 2 hours, the radioactivity of tritiated product tied to the receptor was determined by the adsorption technique of carbondextran (1.25% to 0.625%).
B/T max. is the percentage of tritiated product R bound when no product was added and B/T min. is the percentage of tritiated product R bound when the mazimum quantity of cold product R is added. The intersections of line I50 and the curves permit the determination of the CT and CX values.

Take `C[C@@H]1CC2=CC(=O)CC[C@]2(C)[C@H]2CC[C@@]3(C)[C@@H](CC[C@@]34CCS(=O)O4)[C@H]12` (single isomer, unassigned) [product C]: the “% inhibition of the activity of aldosterone monoacetate against the urinary sodium/potassium ratio” value in assay [1] came to 22%. On androgen receptors, the “affinity for androgen receptors (in words)” value is “little or no affinity” and the “RLA (relative affinity = 100 × CT/CX)” value is reported as 3.6.

As to `C[C@]12CCC(=O)C=C1[C@@H]1C[C@@H]1[C@@H]1[C@@H]2CC[C@@]2(C)[C@H]1CC[C@@]21CCS(=O)O1` (single isomer, unassigned) [product A], in assay [1], the “% inhibition of the activity of aldosterone monoacetate against the urinary sodium/potassium ratio” value was found to be 25%. Besides, on androgen receptors, the “affinity for androgen receptors (in words)” value is given as “little or no affinity” and the “RLA (relative affinity = 100 × CT/CX)” value turned out to be 0.

Turning to `C[C@]12CCC(=O)C=C1[C@H]1C[C@H]1[C@@H]1[C@@H]2CC[C@@]2(C)[C@H]1CC[C@@]21CCS(=O)O1` (single isomer, unassigned) [product B], in assay [1], the “% inhibition of the activity of aldosterone monoacetate against the urinary sodium/potassium ratio” value was 19%.

The record behind these values is patent US4093720A, “Novel-17-spirosultines their corresponding hydroxy acids and compositions thereof” (Roussel Uclaf, priority 1976, dated 1978).
